For series [1], the system named is release of GH by the pituitary. Put plainly: relative in vivo potency of GRF analogs (Table I). Particulars: expected from the relative in vivo potency at a dose of 0.01 nmol/kg; ED50 not determined.
Series [2] has as its system plasma DPP-IV. Type of series: in vitro ADME, bovine. As for the experimental part:
Evidence of the improved metabolic stability of the compounds of this invention (when compared to native GRF) is illustrated in Table I by the in vitro stability data provided. It is noteworthy that in bovine plasma in vitro, the analogs having […], Val², Ile² or Leu² were not cleaved after residue 2 by plasma DPP-IV under the experimental conditions used in the study (one hour plasma incubation).

Where no end group is shown, it is not given here.

Regarding “Ile² Ala¹⁵ Leu²⁷ bGRF(1-29)NH₂, trifluoroacetate salt [Cpd. No. 3]”, the “potency relative to its isomer Leu2 Ala15 Leu27 bGRF(1-29)NH2, trifluoroacetate salt, when the ED50 of each is determined and compared” value in series [1] is 10-20 times.
“YTDAIFTNSYRKVLAQLSARKLLQDILNR-NH2 [Cpd. No. 1, Thr² Ala¹⁵ Leu²⁷ bGRF(1-29)NH₂, trifluoroacetate salt]”: in series [2], the DPP-IV related cleavage entry is on record as “slight DPP-IV related cleavage”.

Source of the values: EP0477217B1, “STABILIZED, POTENT GRF ANALOGS” (THE UPJOHN COMPANY, priority 1989, dated 1994).
